The values that follow come from patent US10912294B2, “Composition for use as pesticide, fertilizer, or both, and uses thereof” (priority 2015, dated 2021).

The subject of series [1] is Staphylococcus aureus (ATCC 6538). As to the kind of experiment: Minimum concentration for total bactericidal activity, AOAC method 955.15 (Phenol Coefficient Method). The format is cell-based. To be noted: total antimicrobial (bactericidal) activity; incorporated into composition F; contact time 10 minutes.
In series [2] the test system is Staphylococcus aureus ATCC43300. To be noted: A. Nostro et al. 2004; cited from earlier work.
Series [3] has as its system Staphylococcus aureus ATCC6538. To be noted: R. J. W. Lambert et al. 2001; cited from earlier work.
Series [4] concerns Staphylococcus epidermidis ATCC12228. The note with it: A. Nostro et al. 2004; cited from earlier work.
The subject of series [5] is Pseudomonas aeruginosa ATCC2730. To be noted: R. J. W. Lambert et al. 2001; cited from earlier work.
For series [6], the system named is Candida albicans ATCC10231. To be noted: E. pinto et al. 2006; cited from earlier work.
The test system of series [7] is Candida tropicalis ATCC13803. The note with it: E. pinto et al. 2006; cited from earlier work.
The subject of series [8] is Epidermophyton floccosum FF9. To be noted: E. pinto et al. 2006; cited from earlier work.
A further series deals with Trichophyton rubrum FF5. To be noted: E. pinto et al. 2006; cited from earlier work.
The subject of series [9] is Trichophyton mentagrophytes FF7. To be noted: E. pinto et al. 2006; cited from earlier work.
A further series relates to Microsporum canis FF1. To be noted: E. pinto et al. 2006; cited from earlier work.
A further series has as its system Microsporum gypseum FF3. The note with it: E. pinto et al. 2006; cited from earlier work.
Series [10] concerns Aspergillus niger ATCC16404. The note with it: E. pinto et al. 2006; cited from earlier work.
In series [11] the test system is Aspergillus fumigatus ATCC46645. The note with it: E. pinto et al. 2006; cited from earlier work.
For series [12] the following is noted: in vivo; cited from earlier work.
Series [13] deals with E. amylovora 433 (streptomycin-sensitive). Put plainly: Sensitivity test on King B agar media. The format is cell-based, Erwinia amylovora. To be noted: streptomycin 100, 250 and 500 ppm; composition 12 at 1, 2.5 and 5%; up to 72 hours at 26° C.
For series [14], the system named is E. amylovora 435 (streptomycin-sensitive). Put plainly: Sensitivity test on King B agar media. The format is cell-based, Erwinia amylovora. To be noted: streptomycin 100, 250 and 500 ppm; composition 12 at 1, 2.5 and 5%; up to 72 hours at 26° C.
Series [15] relates to E. amylovora 153sm5 (streptomycin-resistant). The class given is cell-based, Erwinia amylovora. The note with it: streptomycin 100, 250 and 500 ppm; composition 12 at 1, 2.5 and 5%; up to 72 hours at 26° C.
The test system of a further series is E. coli ATCC 25922. As to the kind of experiment: Sensitivity test on King B agar media. The format is cell-based. The note with it: streptomycin 100, 250 and 500 ppm; composition 12 at 1, 2.5 and 5%; up to 72 hours at 26° C.
Series [16] has as its system Treponema phagedaenis-like. To be noted: D. Döpfer et al. 2013; cited from earlier work.

Regarding `CC(C)=CCCC(C)=CC=O` [Citral], the “Minimal Concentration” value in series [1] is on record as above 1% v/v %.

For the compound `Cc1ccc(C(C)C)cc1O` [Carvacrol], the “Minimal Concentration” value in series [1] worked out at 0.07 v/v %. Further, the MIC in [2] was 0.015 v/v %; in [3], 0.0175 v/v %; in [4] it was 0.03 v/v %; in series [5] it was 0.045 v/v %; in series [6], 0.016 v/v %; in series [7], 0.016 v/v %. For the same compound, the MIC in series [8] is given as 0.008 v/v %; with Trichophyton rubrum FF5, 0.008 v/v %; in series [9], 0.004 v/v %; with Microsporum canis FF1 it was 0.004 v/v %; in the series on Microsporum gypseum FF3 it was 0.004 v/v %; in series [10], 0.016 v/v %. In series [11], the MIC is on record as 0.016 v/v %.

For `COCC(C)O` (stereo not shown) [Glycol Ether PM], in series [12], the “LD50 Oral-rat” value is reported as 5 210 mg/kg.

For the compound `[H]/N=C(/N)N[C@H]1[C@H](O)[C@@H](O)[C@H](O[C@@H]2O[C@@H](C)[C@](O)(C=O)[C@H]2O[C@@H]2O[C@@H](CO)[C@H](O)[C@@H](O)[C@@H]2NC)[C@@H](N/C(N)=N\[H])[C@@H]1O` [streptomycin], the “Bacterial growth on King B agar media containing the agent” value in [13] is reported as “did not grow”; in series [14], “did not grow”; in series [15], “not inhibited”; in the series with E. coli ATCC 25922, “did not grow”.

With `CCCCCCCCCCCCOS(=O)(=O)[O-].[Na+]` [Sodium Lauryl Sulfate], the “LD50 Oral-rat” value in [12] is reported as 1288 mg/kg.

As for `C=CCc1ccc(O)c(OC)c1` [Eugenol], the “Minimal Concentration” value in series [1] was determined as 0.4 v/v %.

Turning to `Cc1ccc(C(C)C)c(O)c1` [Thymol], the “Minimal Concentration” value in series [1] is reported as 0.07 v/v %. Besides, the MIC in series [2] was 0.06 v/v %; in series [3] it was 0.014 v/v %; in series [4] it was 0.06 v/v %; in series [5], 0.0385 v/v %; in [16] it was 0.0006 v/v %; in series [6], 0.016 v/v %. The MIC in series [7] is given as 0.016 v/v %; in [8], 0.016 v/v %; in the series on Trichophyton rubrum FF5, 0.016 v/v %; in series [9] it was 0.016 v/v %; in the series with Microsporum canis FF1 it was 0.008 v/v %; with Microsporum gypseum FF3, 0.016 v/v %. Besides, the MIC in [10] and in series [11] was 0.016 v/v % in each case.
